# Measurements taken from patent US6864217B2, “Herbicidal compositions with substituted phenylsulfonylureas for controlling weeds in rice” (Hoechst Schering AgrEvo GmbH, priority 1998, dated 2005).
# Structures can show the parent of a compound that is named as a salt. Where two headings read alike, the source gives them in different places.
# What was measured:
# [1] = test system: Cyperus irria; experiment: Table 3 field trial, treatment at the 2 leaf stage weed grasses: weed control; format: in vivo; conditions: 28 days after application
# Description: (§3) The examples mentioned below were carried out in the greenhouse, and in some instances, in field trials.
# [2] = test system: Oryza sativa; experiment: Table 9 greenhouse trial, treatment at the 1-2 leaf stage: rice damage; format: in vivo; conditions: 22 days after application
# Description: (§1) Seeds or rhizome pieces of mono- and dicotyledonous weed plants are placed into sandy loam soil in plastic pots, covered with soil and grown in a greenhouse under good growth conditions (temperature, atmospheric humidity, water supply). Weeds which are encountered in the cultivation of rice are cultivated in pots in which the water level is up to 2 cm over the soil surface. Three weeks after sowing, the test plants are treated at the three-leaf stage. The active compound combinations according to the invention, formulated as wettable powders or emulsion concentrates, and, in parallel experiments, the correspondingly formulated individual active compounds are sprayed onto the green parts of the plants at different dosages using an amount of water of 300 to 600 l/ha (converted), and, after about 3 to 4 weeks of the test plants in the greenhouse under optimum growth conditions (temperature, atmospheric humidity, water supply), the effect of the preparations is evaluated visually in comparison to untreated controls. In the case of rice or weeds which are encountered in the cultivation of rice, the active compounds are also added directly to the water for irrigation (application analogous to the so-called granules application) or sprayed onto plants and added to the water for irrigation. The experiments were designed with several, up to five, repetitions. The herbicidal compositions according to the invention also have good herbicidal post-emergence activity against a broad spectrum of economically important weed grasses and broad-leaved weeds.
# Greenhouse trial: Treatment at the 1-2 leaf stage, evaluation 22 days after the application.
# [3] = test system: Oryza sativa; experiment: Table 18 field trial, treatment at the 1-2 leaf stage: rice damage; format: in vivo; conditions: 14 days after application
# Description: Field trial: Treatment at the 1-2 leaf stage, evaluation 14 days after the application.
# [4] = test system: Oryza sativa; experiment: Table 3 field trial, treatment at the 4-5 leaf stage (seed rice): rice damage; conditions: 28 days after application
# Description: as §3
# [5] = test system: Oryza sativa; experiment: Table 26 field trial, treatment at the 3 leaf stage: rice damage; format: in vivo; conditions: 33 days after application
# Description: (§2) Field trial: Treatment at the 3 leaf stage, evaluation 33 days after the application.
# [6] = test system: Eleusine indica; experiment: Table 2 field trial, treatment at the 2-3 leaf stage weed grasses: weed control; format: in vivo; conditions: 28 days after application
# Description: as §3
# [7] = test system: Leptochloa filiformis; experiment: Table 2a field trial, treatment at the 2-3 leaf stage weed grasses: weed control; format: in vivo; conditions: 28 days after application
# Description: as §3
# [8] = test system: Oryza sativa; experiment: Table 2a field trial, treatment at the 1-2 leaf stage rice: rice damage; conditions: 28 days after application
# Description: as §3
# [9] = test system: Oryza sativa; experiment: Table 6 field trial, treatment at the 1-2 leaf stage: rice damage; format: in vivo; conditions: 2 g of ai/ha; field trial, 28 days after application
# Description: as §3
# [10] = test system: Cyperus serotinus; experiment: Table 21 field trial, treatment at the 2 leaf stage: weed control; format: in vivo; conditions: 2.5 g of ai/ha, 28 days after application
# Description: Field trial: Treatment at the 2 leaf stage, evaluation 28 days after the application.
# [11] = test system: Oryza sativa; experiment: Table 24 field trial, treatment by the pre-emergence method: rice damage; format: in vivo; conditions: field trial, pre-emergence method, 53 days after application
# Description: Field trial: Treatment by the pre-emergence method, evaluation 53 days after the application.
# [12] = test system: Oryza sativa; experiment: Table 16 greenhouse trial, treatment at the 2-3 leaf stage: rice damage; format: in vivo; conditions: 20 days after application
# Description: as §1
# Greenhouse trail: Treatment at the 2-3 leaf stage, evaluation 20 days after the application.
# [13] = test system: Oryza sativa; experiment: Table 13 greenhouse trial, treatment at the 5-6 leaf stage: rice damage; format: in vivo; conditions: 20 days after application
# Description: as §1
# Greenhouse trial: Treatment at the 5-6 leaf stage, evaluation 20 days after the application.
# [14] = test system: Oryza sativa; experiment: Table 14 greenhouse trial, treatment at the 3-4 leaf stage: rice damage; format: in vivo; conditions: 21 days after application
# Description: as §1
# Greenhouse trial: Treatment at the 3-4 leaf stage, evaluation 21 days after the application.
# [15] = test system: Echinochloa crusgalli; experiment: Table 8 greenhouse trial, treatment at the 1-2 leaf stage: weed control; format: in vivo; conditions: 22 days after application
# Description: as §1, with “Three weeks after sowing, the test plants are treated at the three-leaf stage.” left out
# [16] = test system: Oryza sativa; conditions: in vivo
# Description: as §1, with “The herbicidal compositions according to the invention also have good herbicidal post-emergence activity against a broad spectrum of economically important weed grasses and broad-leaved weeds.” left out
# [17] = test system: Cyperus iria; experiment: Table 23 field trial, treatment: 4-6 leaf stage: weed control; format: in vivo; conditions: 36 days after application
# Description: Field trial: Treatment: 4-6 leaf stage, evaluation 36 days after the application.
# [18] = test system: Oryza sativa; experiment: Table 25 field trial, treatment at the 3 leaf stage: rice damage; format: in vivo; conditions: 33 days after application
# Description: as §2
# [19] = test system: Commelina benghalensis; experiment: Table 26 field trial, treatment at the 3 leaf stage: weed control; format: in vivo; conditions: 33 days after application
# Description: as §2
smiles,measurement,setting,value
"COC(=O)c1ccc(I)cc1S(=O)(=O)NC(=O)Nc1nc(C)nc(OC)n1 [A1*), Sodium salt of methyl 4-iodo-2-[3-(4-methoxy-6-methyl-1,3,5-triazin-2-yl)ureidosulfonyl]benzoate]",CYPIR % control,[1]; 0.75 g of ai/ha,40%
same,CYPIR % control,[1]; 1.5 g of ai/ha,67%
same,CYPIR % control,[1]; 2.5 g of ai/ha,87%
same,ORYSW % damage,[2]; 1.5 g of ai/ha,10%
same,ORYSW % damage,[2]; 3 g of ai/ha,10%
same,ORYSW % damage,[3]; 1 g of ai/ha,7%
same,ORYSW % damage,[3]; 2 g of ai/ha,12%
same,ORYSW % damage,[4]; 0.75 g of ai/ha,0%
same,ORYSW % damage,[4]; 1.5 g of ai/ha,0%
same,ORYSW % damage,[4]; 2.5 g of ai/ha,0%
same,ORYSW % damage,[5]; 2.5 g of ai/ha,0%
same,ORYSW % damage,[5]; 5 g of ai/ha,0%
same,ELEIN % control,[6]; 1.25 g of ai/ha,0%
same,ELEIN % control,[6]; 2.5 g of ai/ha,0%
same,ELEIN % control,[6]; 5 g of ai/ha,0%
same,LEFFI % control,[7]; 1.25 g of ai/ha,0%
same,LEFFI % control,[7]; 2.5 g of ai/ha,73%
same,LEFFI % control,[7]; 5 g of ai/ha,72%
same,ORYSW % damage,[8]; 1.25 g of ai/ha,10%
same,ORYSW % damage,[8]; 2.5 g of ai/ha,25%
same,ORYSW % damage,[8]; 5 g of ai/ha,25%
same,ORYSW % damage,[9],0%
same,CYPSE % control,[10],25%
same,ORYSW % damage,[11]; 2.5 g of ai/ha,0%
same,ORYSW % damage,[11]; 5 g of ai/ha,0%
same,ORYSW % damage,[12]; 1.25 g of ai/ha,5%
same,ORYSW % damage,[12]; 2.5 g of ai/ha,10%
same,ORYSW % damage,[12]; 5 g of ai/ha,10%
same,ORYSW % damage,[13]; 1.5 g of ai/ha,10%
same,ORYSW % damage,[13]; 3 g of ai/ha,10%
same,ORYSW % damage,[14]; 1.5 g of ai/ha,10%
same,ORYSW % damage,[14]; 3 g of ai/ha,10%
same,ECHCG % control,[15]; 1.5 g of ai/ha,40%
same,ECHCG % control,[15]; 3 g of ai/ha,60%
same,ORYSW % damage,[16],10%
same,CYPIR % control,[17]; 0.62 g of ai/ha,53%
same,CYPIR % control,[17]; 1.25 g of ai/ha,85%
same,CYPIR % control,[17]; 2.5 g of ai/ha,98%
same,ORYSW % damage,[18]; 1.25 g of ai/ha,6%
same,ORYSW % damage,[18]; 2.5 g of ai/ha,12%
same,COMBE % control,[19]; 2.5 g of ai/ha,47%
same,COMBE % control,[19]; 5 g of ai/ha,67%
